Results taken from US10993983B2, “Cyclic peptide epitopes and small-molecule mimics for inducing autophagy” (TRUSTEES OF TUFTS COLLEGE, priority 2016, dated 2021).
Marks after values point to notes of the source that are not given here. Where no end group is shown, it is not given here. [ ]: non-standard residue; d: D form. c(FΦRRRRE) = cyclic peptide with F and E termini bonded, Φ = L-2-naphthylalanine

Columns and labels:
LC3 = LC3 marker assay (LC3-I to LC3-II conversion immunoblot);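 as to Activity (μM) 10, LC3 assay activity: HeLa cells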;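 as to Activity (μM) 100, LC3 assay activity: HeLa cells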;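 as to Activity (μM) 20, LC3 assay activity: HeLa cells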;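 as to Activity (μM) 30, LC3 assay activity: HeLa cells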;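 as to Activity (μM) 50, LC3 assay activity: HeLa cells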; assay type: cell-based; design: key: −: activity not reported; 0: decreased vs. WT; +: similar to WT; ++: modest increase vs. WT; +++: significant increase vs. WT; settings: for Activity (μM) 10, LC3 assay activity: 10 μM; for Activity (μM) 30, LC3 assay activity: 30 μM; for Activity (μM) 50, LC3 assay activity: 50 μM; for Activity (μM) 100, LC3 assay activity: 100 μM; for Activity (μM) 20, LC3 assay activity: 20 μM; for Activity (μM) 10, starred cell, LC3 assay activity / Activity (μM) 30, starred cell, LC3 assay activity: Table 8; for Activity (μM) 10, starred cell, LC3 assay activity: 10 μM marked * (footnote: data taken at 20 instead of 30 μM); for Activity (μM) 30, starred cell, LC3 assay activity: *Data taken at 20 instead of 30 μM
Method: (§1) Cells were treated with peptide in OPTI-MEM (Thermo Scientific) acidified with 0.15% (v/v) 6N HCl for 3 hour. Cells were rinsed with Dulbecco's phosphate buffered saline (PBS) and lysed in lysis buffer (20 mM HEPES, 150 mM NaCl, 1 mM EDTA, 1% Triton X-100, protease inhibitor cocktail (Roche) on ice for 1 hour. Cell lysates were centrifuged at 16,000 g for 10 min at 4° C. and analyzed by SDS-PAGE and transferred to PVDF membranes. The membranes were blocked 5% non-fat dry milk (NFDM) in PBST (PBS+0.05% Tween-20) for 1 hour, then incubated overnight at 4° C. with primary antibody in 5% NFDM in PBST. The blots were washed with PBST and incubated with HRP-conjugated secondary antibodies diluted in 5% NFDM in PBST for 1 hour at room temperature. Membranes were washed with PBST and visualized with SuperSignal West Pico Chemiluminescent Substrate (Thermo Scientific). Semi-quantitative results were obtained by noting the lowest concentration at which both p62 degradation and LC3-I to LC3-II conversion were observed.
(§2) Compounds 1-10 were evaluated using the assays described in Examples 4 and 5. Activity for each compound was measured in the p62 degradation assay and the LC3 marker assay as described herein. The activity at each concentration of peptide is given as, for example, (0/+) where 0 would be the p62/actin assay activity and + would be the LC3 assay activity.

p62 = p62 degradation assay (p62/actin immunoblot);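 as to Activity (μM) 10, p62/actin assay activity: HeLa cells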;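 as to Activity (μM) 100, p62/actin assay activity: HeLa cells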;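 as to Activity (μM) 20, p62/actin assay activity: HeLa cells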;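 as to Activity (μM) 30, p62/actin assay activity: HeLa cells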;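 as to Activity (μM) 50, p62/actin assay activity: HeLa cells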; assay type: cell-based; design: key: −: activity not reported; 0: decreased vs. WT; +: similar to WT; ++: modest increase vs. WT; +++: significant increase vs. WT; settings: for Activity (μM) 10, p62/actin assay activity: 10 μM; for Activity (μM) 30, p62/actin assay activity: 30 μM; for Activity (μM) 50, p62/actin assay activity: 50 μM; for Activity (μM) 100, p62/actin assay activity: 100 μM; for Activity (μM) 20, p62/actin assay activity: 20 μM; for Activity (μM) 10, starred cell, p62/actin assay activity / Activity (μM) 30, starred cell, p62/actin assay activity: Table 8; for Activity (μM) 10, starred cell, p62/actin assay activity: 10 μM marked * (footnote: data taken at 20 instead of 30 μM); for Activity (μM) 30, starred cell, p62/actin assay activity: *Data taken at 20 instead of 30 μM
Method: as §1, §2

[1] = Table 8, control compound T25, second symbol
[2] = Table 8, control compound T25, first symbol
[3] = Table 3, control vehicle, second symbol of cell
[4] = Table 3, control vehicle, second symbol
[5] = Table 3, control vehicle, first symbol of cell
[6] = Table 3, control vehicle, first symbol

Sequence: VCNATCHIWH [Compound 35]
- Activity (μM) 10, LC3 assay activity (LC3; [1]): 0/0
- Activity (μM) 30, LC3 assay activity (LC3; [1]): +
- Activity (μM) 50, LC3 assay activity (LC3; [1]): ++
- Activity (μM) 100, LC3 assay activity (LC3; [1]): ++
- Activity (μM) 10, p62/actin assay activity (p62; [2]): 0/0
- Activity (μM) 30, p62/actin assay activity (p62; [2]): 0
- Activity (μM) 50, p62/actin assay activity (p62; [2]): +++
- Activity (μM) 100, p62/actin assay activity (p62; [2]): +++

Sequence: VCNATCHIWH [Compound 36]
- Activity (μM) 50, LC3 assay activity (LC3; [1]): 0/0
- Activity (μM) 100, LC3 assay activity (LC3; [1]): 0/0
- Activity (μM) 50, p62/actin assay activity (p62; [2]): 0/0
- Activity (μM) 100, p62/actin assay activity (p62; [2]): 0/0

Sequence: VCNATCHIWH [Compound 44]
- Activity (μM) 50, LC3 assay activity (LC3; [1]): 0/0
- Activity (μM) 100, LC3 assay activity (LC3; [1]): 0/0
- Activity (μM) 50, p62/actin assay activity (p62; [2]): 0/0
- Activity (μM) 100, p62/actin assay activity (p62; [2]): 0/0

Sequence: VCNATCHIWH [Compound 48]
- Activity (μM) 50, LC3 assay activity (LC3; [1]): +++/+++
- Activity (μM) 100, LC3 assay activity (LC3; [1]): +++/+++
- Activity (μM) 50, p62/actin assay activity (p62; [2]): +++/+++
- Activity (μM) 100, p62/actin assay activity (p62; [2]): +++/+++

Sequence: VCNATCHIWH [Compound 49]
- Activity (μM) 50, LC3 assay activity (LC3; [1]): +++/+++
- Activity (μM) 100, LC3 assay activity (LC3; [1]): +++/+++
- Activity (μM) 50, p62/actin assay activity (p62; [2]): +++/+++
- Activity (μM) 100, p62/actin assay activity (p62; [2]): +++/+++

Sequence: VCNATCHIWH [Compound 50]
- Activity (μM) 50, LC3 assay activity (LC3; [1]): +++
- Activity (μM) 100, LC3 assay activity (LC3; [1]): +++
- Activity (μM) 50, p62/actin assay activity (p62; [2]): ++
- Activity (μM) 100, p62/actin assay activity (p62; [2]): ++

Sequence: VCNATCHIWH [Compound 51]
- Activity (μM) 50, LC3 assay activity (LC3; [1]): +++/+++
- Activity (μM) 100, LC3 assay activity (LC3; [1]): +++/+++
- Activity (μM) 50, p62/actin assay activity (p62; [2]): +++/+++
- Activity (μM) 100, p62/actin assay activity (p62; [2]): +++/+++

Sequence: VCNATCHIWR (V[dC]NAT[dC]HIWR; cysteine pairing not given here) [Compound 38]
- Activity (μM) 50, LC3 assay activity (LC3; [1]): 0/0
- Activity (μM) 100, LC3 assay activity (LC3; [1]): 0/0
- Activity (μM) 50, p62/actin assay activity (p62; [2]): 0/0
- Activity (μM) 100, p62/actin assay activity (p62; [2]): 0/0

Sequence: VCNATCRIWR (V[dC]NAT[dC]RIWR; not fully specified (C-terminus); cysteine pairing not given here) [Compound 42]
- Activity (μM) 50, LC3 assay activity (LC3; [1]): 0/0
- Activity (μM) 100, LC3 assay activity (LC3; [1]): 0/0
- Activity (μM) 50, p62/actin assay activity (p62; [2]): 0/0
- Activity (μM) 100, p62/actin assay activity (p62; [2]): 0/0

Sequence: VWNATCHIWC [Compound 59]
- Activity (μM) 5, LC3 assay activity (LC3; 5 μM, Table 8, control compound T25, second symbol): 0/0
- Activity (μM) 10, LC3 assay activity (LC3; [1]): 0/0
- Activity (μM) 30, LC3 assay activity (LC3; [1]): 0/0
- Activity (μM) 5, p62/actin assay activity (p62; 5 μM, Table 8, control compound T25, first symbol): 0/0
- Activity (μM) 10, p62/actin assay activity (p62; [2]): 0/0
- Activity (μM) 30, p62/actin assay activity (p62; [2]): 0/0

Sequence: VWNATCHIWC [Compound 65]
- Activity (μM) 50, LC3 assay activity (LC3; [1]): 0/0
- Activity (μM) 50, p62/actin assay activity (p62; [2]): 0/0

Sequence: VWNATFHIWH (not fully specified (N-terminus, C-terminus)) [Compound 5, likely pa-10mer]
- Activity (μM) 10, LC3 assay activity (LC3; [3]): 0/0
- Activity (μM) 20, LC3 assay activity (LC3; [4]): 0/0
- Activity (μM) 30, LC3 assay activity (LC3; [1]): 0/0
- Activity (μM) 50, LC3 assay activity (LC3; [4]): +
- Activity (μM) 50, LC3 assay activity (LC3; [1]): 0/0
- Activity (μM) 100, LC3 assay activity (LC3; [4]): +/+
- Activity (μM) 100, LC3 assay activity (LC3; [1]): 0/0
- Activity (μM) 10, starred cell, LC3 assay activity (LC3; second symbol): 0/0*
- Activity (μM) 10, p62/actin assay activity (p62; [5]): 0/0
- Activity (μM) 20, p62/actin assay activity (p62; [6]): 0/0
- Activity (μM) 30, p62/actin assay activity (p62; [2]): 0/0
- Activity (μM) 50, p62/actin assay activity (p62; [6]): 0
- Activity (μM) 50, p62/actin assay activity (p62; [2]): 0/0
- Activity (μM) 100, p62/actin assay activity (p62; [6]): +/+
- Activity (μM) 100, p62/actin assay activity (p62; [2]): 0/0
- Activity (μM) 10, starred cell, p62/actin assay activity (p62; first symbol): 0/0*

Sequence: VWNATFHIWH (not fully specified (N-terminus, C-terminus)) [Compound 64]
- Activity (μM) 10, LC3 assay activity (LC3; [1]): 0/0
- Activity (μM) 30, starred cell, LC3 assay activity (LC3; second symbol): 0/0*
- Activity (μM) 10, p62/actin assay activity (p62; [2]): 0/0
- Activity (μM) 30, starred cell, p62/actin assay activity (p62; first symbol): 0/0*

Sequence: VWNATFHIWHD (not fully specified (N-terminus, C-terminus)) [Compound 6, likely pa-11mer]
- Activity (μM) 10, LC3 assay activity (LC3; [3]): 0/0
- Activity (μM) 20, LC3 assay activity (LC3; [4]): 0/0
- Activity (μM) 30, LC3 assay activity (LC3; [1]): 0/0
- Activity (μM) 50, LC3 assay activity (LC3; [4]): 0/0
- Activity (μM) 50, LC3 assay activity (LC3; [1]): 0
- Activity (μM) 100, LC3 assay activity (LC3; [4]): 0/0
- Activity (μM) 100, LC3 assay activity (LC3; [1]): 0/0
- Activity (μM) 10, starred cell, LC3 assay activity (LC3; second symbol): 0/0*
- Activity (μM) 10, p62/actin assay activity (p62; [5]): 0/0
- Activity (μM) 20, p62/actin assay activity (p62; [6]): 0/0
- Activity (μM) 30, p62/actin assay activity (p62; [2]): 0/0
- Activity (μM) 50, p62/actin assay activity (p62; [6]): 0/0
- Activity (μM) 50, p62/actin assay activity (p62; [2]): ++
- Activity (μM) 100, p62/actin assay activity (p62; [6]): 0/0
- Activity (μM) 100, p62/actin assay activity (p62; [2]): 0/0
- Activity (μM) 10, starred cell, p62/actin assay activity (p62; first symbol): 0/0*

Sequence: VWNATFHIWHD [62] ({c(FΦRRRRE)}-VWNATFHIWHD; not fully specified; printed as R1 cyclic c(FΦRRRRE) attached) [Compound 62]
- Activity (μM) 10, LC3 assay activity (LC3; [1]): +++
- Activity (μM) 30, starred cell, LC3 assay activity (LC3; second symbol): +++/+++*
- Activity (μM) 10, p62/actin assay activity (p62; [2]): ++
- Activity (μM) 30, starred cell, p62/actin assay activity (p62; first symbol): +++/+++*

Sequence: VWNATFHIWHD [63] (not fully specified (N-terminus, C-terminus)) [Compound 63]
- Activity (μM) 10, LC3 assay activity (LC3; [1]): +
- Activity (μM) 30, starred cell, LC3 assay activity (LC3; second symbol): +++
- Activity (μM) 10, p62/actin assay activity (p62; [2]): 0
- Activity (μM) 30, starred cell, p62/actin assay activity (p62; first symbol): 0

Sequence: YGRKKRRQRRRGGVWNATFHIWHD [7] (Ac-YGRKKRRQRRRGGVWNATFHIWHD-NH2) [Compound 7, likely Tat-11mer]
- Activity (μM) 10, LC3 assay activity (LC3; [3]): ++
- Activity (μM) 20, LC3 assay activity (LC3; [4]): +++/+++
- Activity (μM) 10, p62/actin assay activity (p62; [5]): 0
- Activity (μM) 20, p62/actin assay activity (p62; [6]): +++/+++

Sequence: YGRKKRRQRRRGGVWNATFHIWHD [8] (not fully specified (N-terminus, C-terminus)) [Compound 8]
- Activity (μM) 10, LC3 assay activity (LC3; [3]): +
- Activity (μM) 20, LC3 assay activity (LC3; [4]): ++
- Activity (μM) 50, LC3 assay activity (LC3; [4]): +++
- Activity (μM) 10, p62/actin assay activity (p62; [5]): 0
- Activity (μM) 20, p62/actin assay activity (p62; [6]): 0
- Activity (μM) 50, p62/actin assay activity (p62; [6]): ++
